From PubChem BioAssay AID248 (DTP/NCI, 2004)
Where “and” joins values, the source holds several entries; their conditions need not be identical. Equal values may be shown once. Inconclusive results and toxic doses are left out.

System: L1210 leukemia ip in BDF1 mice, survival T/C
Assay: NCI In Vivo Anticancer Drug Screen. Data for tumor model L1210 Leukemia (intraperitoneal) in B6D2F1 (BDF1) mice
Conditions: higher = longer survival
Outline: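 Transplantable tumor model; survival measured in treated vs vehicle control mice. Value = treated/control.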

In the case of `COc1c2c(cc3c1N(C)C(=O)CC3C)C(C)CC(=O)N2` (configuration not stated), the T/C (endpoint: mean survival time, dose: 75.0 mg/kg/injection, schedule: Q04DX003 (ip), vehicle: Klucel (hydroxypropylcellulose) (HPC)) is reported as 98 % of control.
`C=CCNC(=O)Oc1cccc(NC(=O)C(C)CCC)c1` (configuration not stated) was tested, and the T/C (endpoint: mean survival time, dose: 100.0 mg/kg/injection, schedule: Q01DX009 (ip), vehicle: saline with Tween-80) was 101 % of control, the T/C (endpoint: mean survival time, dose: 200.0 mg/kg/injection, schedule: Q01DX009 (ip), vehicle: saline with Tween-80) was 95 % of control and the T/C (endpoint: mean survival time, dose: 400.0 mg/kg/injection, schedule: Q01DX009 (ip), vehicle: saline with Tween-80) was 108 % of control.
`CO[C@@]12[C@H](COC(N)=O)C3=C(C(=O)C(C)=C(N)C3=O)N1C[C@@H]1N[C@@H]12` was tested, and the T/C (endpoint: mean survival time, dose: 0.1 mg/kg/injection, schedule: Q01DX Z (ip), vehicle: carboxymethylcellulose (CMC)) was 110 % of control, the T/C (endpoint: mean survival time, dose: 0.18 mg/kg/injection, schedule: Q04DX002 (ip), vehicle: saline) was 106 % of control and 110 % of control and the T/C (endpoint: mean survival time, dose: 0.2 mg/kg/injection, schedule: Q01DX Z (ip), vehicle: carboxymethylcellulose (CMC)) was 110 % of control. For the same compound, the T/C (endpoint: mean survival time, dose: 0.2 mg/kg/injection, schedule: Q02DX010 (ip), vehicle: carboxymethylcellulose (CMC)) was 118 % of control, the T/C (endpoint: mean survival time, dose: 0.25 mg/kg/injection, schedule: Q01DX Z (ip), vehicle: carboxymethylcellulose (CMC)) was 107 % of control and the T/C (endpoint: mean survival time, dose: 0.32 mg/kg/injection, schedule: Q01DX Z (ip), vehicle: carboxymethylcellulose (CMC)) was 98 % of control. The T/C (endpoint: mean survival time, dose: 0.35 mg/kg/injection, schedule: Q01DX009 (ip), vehicle: saline) was 120 % of control, the T/C (endpoint: mean survival time, dose: 0.35 mg/kg/injection, schedule: Q04DX002 (ip), vehicle: saline) was 103 % of control and the T/C (endpoint: mean survival time, dose: 0.4 mg/kg/injection, schedule: Q01DX Z (ip), vehicle: carboxymethylcellulose (CMC)) was 114 % of control and 116 % of control. The T/C (endpoint: mean survival time, dose: 0.4 mg/kg/injection, schedule: Q02DX010 (ip), vehicle: carboxymethylcellulose (CMC)) was 111 % of control and 90 % of control, the T/C (endpoint: mean survival time, dose: 0.5 mg/kg/injection, schedule: Q01DX Z (ip), vehicle: carboxymethylcellulose (CMC)) was 107 % of control and 122 % of control and the T/C (endpoint: mean survival time, dose: 0.53 mg/kg/injection, schedule: Q01DX Z (ip), vehicle: carboxymethylcellulose (CMC)) was 114 % of control. The T/C (endpoint: mean survival time, dose: 0.7 mg/kg/injection, schedule: Q01DX001 (ip), vehicle: saline) was 109 % of control, the T/C (endpoint: mean survival time, dose: 0.7 mg/kg/injection, schedule: Q04DX002 (ip), vehicle: saline) was 103 % of control and 111 % of control and the T/C (endpoint: mean survival time, dose: 0.75 mg/kg/injection, schedule: Q01DX001 (ip), vehicle: water) was 118 % of control. The T/C (endpoint: mean survival time, dose: 0.8 mg/kg/injection, schedule: Q02DX010 (ip), vehicle: carboxymethylcellulose (CMC)) was 104 % of control and 121 % of control, the T/C (endpoint: mean survival time, dose: 0.86 mg/kg/injection, schedule: Q02DX010 (ip), vehicle: carboxymethylcellulose (CMC)) was 117 % of control and the T/C (endpoint: mean survival time, dose: 0.9 mg/kg/injection, schedule: Q02DX010 (ip), vehicle: other) was 157 % of control and 219 % of control. The T/C (endpoint: mean survival time, dose: 0.96 mg/kg/injection, schedule: Q01DX001 (ip), vehicle: acetone) was 114 % of control, the T/C (endpoint: mean survival time, dose: 1.0 mg/kg/injection, schedule: Q01DX001 (ip), vehicle: saline) was 111 % of control and the T/C (endpoint: mean survival time, dose: 1.0 mg/kg/injection, schedule: Q01DX Z (ip), vehicle: carboxymethylcellulose (CMC)) was 161 % of control. For the same compound, the T/C (endpoint: mean survival time, dose: 1.1 mg/kg/injection, schedule: Q01DX009 (ip), vehicle: saline) was 155 % of control, the T/C (endpoint: mean survival time, dose: 1.12 mg/kg/injection, schedule: Q01DX015 (ip), vehicle: carboxymethylcellulose (CMC)) was 171 % of control and the T/C (endpoint: mean survival time, dose: 1.25 mg/kg/injection, schedule: Q01DX015 (ip), vehicle: saline) was 162 % of control. For the same compound, the T/C (endpoint: mean survival time, dose: 1.3 mg/kg/injection, schedule: Q02DX010 (ip), vehicle: other) was 167 % of control and 207 % of control, the T/C (endpoint: mean survival time, dose: 1.4 mg/kg/injection, schedule: Q01DX001 (ip), vehicle: acetone) was 111 % of control and the T/C (endpoint: mean survival time, dose: 1.4 mg/kg/injection, schedule: Q01DX009 (ip), vehicle: saline) was 154 % of control and 178 % of control. For the same compound, the T/C (endpoint: mean survival time, dose: 1.5 mg/kg/injection, schedule: Q01DX001 (ip), vehicle: saline) was 115 % of control, the T/C (endpoint: mean survival time, dose: 1.5 mg/kg/injection, schedule: Q01DX001 (ip), vehicle: water) was 117 % of control and the T/C (endpoint: mean survival time, dose: 1.5 mg/kg/injection, schedule: Q07DX003 (ip), vehicle: saline) was 123 % of control. For the same compound, the T/C (endpoint: mean survival time, dose: 1.5 mg/kg/injection, schedule: Q## X003 (ip), vehicle: saline) was 118 % of control, the T/C (endpoint: mean survival time, dose: 1.6 mg/kg/injection, schedule: Q01DX001 (ip), vehicle: saline) was 117 % of control and the T/C (endpoint: mean survival time, dose: 1.9 mg/kg/injection, schedule: Q01DX009 (ip), vehicle: saline) was 97 % of control. For the same compound, the T/C (endpoint: mean survival time, dose: 2.0 mg/kg/injection, schedule: Q01DX Z (ip), vehicle: carboxymethylcellulose (CMC)) was 106 % of control, the T/C (endpoint: mean survival time, dose: 2.0 mg/kg/injection, schedule: Q02DX010 (ip), vehicle: other) was 180 % of control and 184 % of control and the T/C (endpoint: mean survival time, dose: 2.12 mg/kg/injection, schedule: Q02DX010 (ip), vehicle: carboxymethylcellulose (CMC)) was 158 % of control. For the same compound, the T/C (endpoint: mean survival time, dose: 2.2 mg/kg/injection, schedule: Q01DX001 (ip), vehicle: saline) was 108 % of control, the T/C (endpoint: mean survival time, dose: 2.5 mg/kg/injection, schedule: Q01DX015 (ip), vehicle: saline) was 154 % of control and the T/C (endpoint: mean survival time, dose: 2.8 mg/kg/injection, schedule: Q01DX009 (ip), vehicle: saline) was 93 % of control. The T/C (endpoint: mean survival time, dose: 3.0 mg/kg/injection, schedule: Q01DX001 (ip), vehicle: saline) was 123 % of control, the T/C (endpoint: mean survival time, dose: 3.0 mg/kg/injection, schedule: Q02DX010 (ip), vehicle: other) was 115 % of control and 118 % of control and the T/C (endpoint: mean survival time, dose: 3.0 mg/kg/injection, schedule: Q## X003 (ip), vehicle: saline) was 152 % of control. The T/C (endpoint: mean survival time, dose: 3.2 mg/kg/injection, schedule: Q02DX010 (ip), vehicle: carboxymethylcellulose (CMC)) was 184 % of control, the T/C (endpoint: mean survival time, dose: 3.3 mg/kg/injection, schedule: Q01DX001 (ip), vehicle: saline) was 116 % of control and the T/C (endpoint: mean survival time, dose: 4.5 mg/kg/injection, schedule: Q02DX010 (ip), vehicle: other) was 86 % of control and 88 % of control. For the same compound, the T/C (endpoint: mean survival time, dose: 5.0 mg/kg/injection, schedule: Q01DX001 (ip), vehicle: saline) was 118 % of control, the T/C (endpoint: mean survival time, dose: 5.0 mg/kg/injection, schedule: Q01DX015 (ip), vehicle: saline) was 89 % of control and the T/C (endpoint: mean survival time, dose: 6.0 mg/kg/injection, schedule: Q01DX001 (ip), vehicle: saline) was 196 % of control. For the same compound, the T/C (endpoint: mean survival time, dose: 6.0 mg/kg/injection, schedule: Q01DX001 (ip), vehicle: water) was 174 % of control, the T/C (endpoint: mean survival time, dose: 6.7 mg/kg/injection, schedule: Q02DX010 (ip), vehicle: carboxymethylcellulose (CMC)) was 84 % of control and the T/C (endpoint: mean survival time, dose: 7.5 mg/kg/injection, schedule: Q01DX001 (ip), vehicle: saline) was 123 % of control. The T/C (endpoint: mean survival time, dose: 10.6 mg/kg/injection, schedule: Q04DX002 (ip), vehicle: saline) was 171 % of control, the T/C (endpoint: mean survival time, dose: 11.0 mg/kg/injection, schedule: Q01DX001 (ip), vehicle: acetone) was 193 % of control and the T/C (endpoint: mean survival time, dose: 12.0 mg/kg/injection, schedule: Q## X003 (ip), vehicle: saline) was 100 % of control. For the same compound, the T/C (endpoint: mean survival time, dose: 45.0 micrograms/kg/injection, schedule: Q01DX009 (ip), vehicle: saline) was 99 % of control and 117 % of control, the T/C (endpoint: mean survival time, dose: 90.0 micrograms/kg/injection, schedule: Q01DX009 (ip), vehicle: saline) was 106 % of control and 120 % of control and the T/C (endpoint: mean survival time, dose: 180.0 micrograms/kg/injection, schedule: Q01DX009 (ip), vehicle: saline) was 104 % of control and 120 % of control. For the same compound, the T/C (endpoint: mean survival time, dose: 350.0 micrograms/kg/injection, schedule: Q01DX009 (ip), vehicle: saline) was 121 % of control, the T/C (endpoint: mean survival time, dose: 1400.0 micrograms/kg/injection, schedule: Q01DX009 (ip), vehicle: saline) was 153 % of control and the T/C (endpoint: median survival time, dose: 1.5 mg/kg/injection, schedule: Q01DX001 (ip), vehicle: saline) was 100 % of control. The T/C (endpoint: median survival time, dose: 3.0 mg/kg/injection, schedule: Q01DX001 (ip), vehicle: saline) was 109 % of control, the T/C (endpoint: median survival time, dose: 6.0 mg/kg/injection, schedule: Q01DX001 (ip), vehicle: saline) was 109 % of control and the T/C (endpoint: median survival time, dose: 12.0 mg/kg/injection, schedule: Q01DX001 (ip), vehicle: saline) was 117 % of control.
With `CN(C)c1ccc(Cc2ccc(N(C)C)nc2)cn1` the T/C (endpoint: mean survival time, dose: 100.0 mg/kg/injection, schedule: Q04DX003 (ip), vehicle: Klucel (hydroxypropylcellulose) (HPC)) was 110 % of control, the T/C (endpoint: mean survival time, dose: 200.0 mg/kg/injection, schedule: Q04DX003 (ip), vehicle: Klucel (hydroxypropylcellulose) (HPC)) was 102 % of control and the T/C (endpoint: mean survival time, dose: 400.0 mg/kg/injection, schedule: Q04DX003 (ip), vehicle: Klucel (hydroxypropylcellulose) (HPC)) was 100 % of control.
In the case of `O=C(O)C(Oc1ccccc1)Oc1ccccc1`, the T/C (endpoint: mean survival time, dose: 50.0 mg/kg/injection, schedule: Q01DX001 (ip), vehicle: alkali diluted with saline) is reported as 100 % of control, the T/C (endpoint: mean survival time, dose: 100.0 mg/kg/injection, schedule: Q01DX001 (ip), vehicle: alkali diluted with saline) is reported as 96 % of control and the T/C (endpoint: mean survival time, dose: 200.0 mg/kg/injection, schedule: Q01DX001 (ip), vehicle: alkali diluted with saline) is reported as 100 % of control. The T/C (endpoint: mean survival time, dose: 400.0 mg/kg/injection, schedule: Q01DX001 (ip), vehicle: alkali diluted with saline) was 96 % of control.
For `CCCC(C)C(=O)Nc1cccc(OC(=O)NC(C)C)c1` (configuration not stated), the T/C (endpoint: mean survival time, dose: 100.0 mg/kg/injection, schedule: Q04DX003 (ip), vehicle: saline with Tween-80) was 89 % of control, the T/C (endpoint: mean survival time, dose: 200.0 mg/kg/injection, schedule: Q04DX003 (ip), vehicle: saline with Tween-80) was 87 % of control and the T/C (endpoint: mean survival time, dose: 400.0 mg/kg/injection, schedule: Q04DX003 (ip), vehicle: saline with Tween-80) was 92 % of control.
